Source: ChEMBL document CHEMBL4428041, “Identification and SAR Evaluation of Hemozoin-Inhibiting Benzamides Active against Plasmodium falciparum” (J Med Chem, 2016)
In brackets after ≈: the same amount, converted by molar mass. Each block holds one compound with its values, some of them ahead of it. Activity calls are given as the source filed them. The rule behind the calls is not given here.

What was measured:
Hemozoin [1] = assay: Inhibition of hemozoin formation in CQ-sensitive Plasmodium falciparum D10 infected in human type O+ erythrocytes assessed as hemozoin level at beta-hematin IC50 incubated for 32 hrs by cell fractionation assay (reference value: 89%); type: cell-based; set-up: scale not given: the % may be the effect or the level left; settings: Erythrocyte
Hemozoin [2] = assay: Inhibition of beta-hematin in water/NP40/DMSO solution incubated for 5 to 6hrs by detergent-mediated pyridine-ferrichrome method
Plasmodium falciparum [3] = assay: Antimalarial activity against CQ-sensitive Plasmodium falciparum NF54 infected in human type O+ erythrocytes assessed as growth inhibition incubated for 48 hrs by LDH assay; type: functional, organism-based; settings: NF54, 48 h
Hemozoin [4] = assay: Inhibition of hemozoin formation in CQ-sensitive Plasmodium falciparum D10 infected in human type O+ erythrocytes assessed as free heme level at beta-hematin IC50 incubated for 32 hrs by cell fractionation assay (reference value: 7%); type: cell-based; set-up: scale not given: the % may be the effect or the level left; settings: Erythrocyte
Ferriprotoporphyrin IX [5] = system: Ferriprotoporphyrin IX
Description: Binding affinity to Fe(3)PP9 in hematin solution at pH 7.5 by titration-based UV-vis spectrophotometrical analysis

Ferriprotoporphyrin IX [6] = assay: Binding affinity to Fe(3)PP9 solution assessed as ferriprotoporphyrin 9 complex formation by measuring compound concentration causing pink precipitate formation at <=5500 uM
Ferriprotoporphyrin IX [7] = assay: Binding affinity to Fe(3)PP9 solution assessed as ferriprotoporphyrin 9 complex formation by measuring pink precipitate formation at <=5500 uM
Plasmodium falciparum [8] = assay: Antimalarial activity against CQ-sensitive Plasmodium falciparum D10 infected in human type O+ erythrocytes assessed as growth inhibition incubated for 48 hrs by LDH assay; type: functional, organism-based; settings: D10, 48 h
Plasmodium falciparum [9] = assay: Antimalarial activity against Plasmodium falciparum D6 infected in red blood cells assessed as growth inhibition by SYBR green1 fluorescence-based assay; type: functional, organism-based
Hemozoin [10] = assay: Inhibition of beta-hematin incubated for 6 hrs by NP40 detergent-mediated assay
[11] = Kinetic solubility of compound in at pH 6.5 after 2 hrs by shake flask assay; type: physicochemical; settings: buffer, read-out: Kinetic_solubility
[12] = Clearance in human liver microsomes assessed per mg of protein at 0.1 uM by LC-MS/MS analysis; type: ADME, Microsome; settings: read-out: CLH
[13] = Kinetic solubility of compound at pH 2 after 2 hrs by shake flask assay; type: physicochemical; settings: buffer, read-out: Kinetic_solubility
[14] = Half life in human liver microsomes at 0.1 uM in presence of NADPH by LC-MS/MS analysis; type: ADME, Microsome
[15] = Half life in rat liver microsomes at 0.1 uM in presence of NADPH by LC-MS/MS analysis; type: ADME, Microsome
[16] = Clearance in mouse liver microsomes assessed per mg of protein at 0.1 uM by LC-MS/MS analysis; type: ADME, Microsome; settings: read-out: CLH
CHO = assay: Cytotoxicity against CHO cells by MTT assay; type: cell-based; settings: Cricetulus griseus
[17] = Half life in mouse liver microsomes at 0.1 uM in presence of NADPH by LC-MS/MS analysis; type: ADME, Microsome
[18] = Clearance in rat liver microsomes assessed per mg of protein at 0.1 uM by LC-MS/MS analysis; type: ADME, Microsome; settings: read-out: CLH
[19] = Kinetic solubility of compound FaSSIF at pH 6.5 after 2 hrs by shake flask assay; type: physicochemical; settings: read-out: Kinetic_solubility
Plasmodium falciparum [20] = assay: Antimalarial activity against CQ-sensitive Plasmodium falciparum D10 infected in human type O+ erythrocytes assessed as growth inhibition up to 249 uM incubated for 48 hrs by LDH assay; type: functional, organism-based
Plasmodium falciparum [21] = assay: Antimalarial activity against CQ-sensitive Plasmodium falciparum NF54 infected in human type O+ erythrocytes assessed as growth inhibition up to 249 uM incubated for 48 hrs by LDH assay; type: functional, organism-based
Hemozoin [22] = assay: Inhibition of hemozoin formation in CQ-sensitive Plasmodium falciparum D10 infected in human type O+ erythrocytes assessed as increase in free heme at 0.5 to 4 times beta-hematin IC50 incubated for 32 hrs by cell fractionation assay; type: cell-based; settings: Erythrocyte
Hemozoin [23] = assay: Inhibition of hemozoin formation in CQ-sensitive Plasmodium falciparum D10 infected in human type O+ erythrocytes assessed as decrease in hemozoin formation at 0.5 to 4 times beta-hematin IC50 incubated for 32 hrs by cell fractionation assay; type: cell-based; settings: Erythrocyte
Hemozoin [24] = assay: Inhibition of hemozoin formation in Plasmodium falciparum trophozoites infected in human erythrocytes assessed as induction of irregularly scattered and shapeless hemozoin clumps inside swollen digestive vacuole at 0.22 ug/ml incubated for 32 hrs by transmission electron microscopic analysis relative to control; type: cell-based; settings: Erythrocyte
[25] = Selectivity index, ratio of IC50 for cytotoxicity against CHO cells to IC50 for CQ-sensitive Plasmodium falciparum NF54 infected in human type O+ erythrocytes; type: toxicity, cell-based; settings: Chinese hamster, read-out: Ratio IC50
[26] = Extraction ratio in mouse liver microsomes assessed per mg of protein at 0.1 uM by LC-MS/MS analysis; type: ADME, Microsome; settings: read-out: ERH
[27] = Extraction ratio in human liver microsomes assessed per mg of protein at 0.1 uM by LC-MS/MS analysis; type: ADME, Microsome; settings: read-out: ERH
Hemozoin [28] = assay: Inhibition of hemozoin formation in CQ-sensitive Plasmodium falciparum D10 infected in human type O+ erythrocytes assessed as increase in free heme incubated for 32 hrs by cell fractionation assay; type: cell-based; settings: Erythrocyte
[29] = Extraction ratio in rat liver microsomes assessed per mg of protein at 0.1 uM by LC-MS/MS analysis; type: ADME, Microsome; settings: read-out: ERH
Plasmodium falciparum [30] = assay: Antimalarial activity against CQ-resistant Plasmodium falciparum K1 infected in human type O+ erythrocytes assessed as growth inhibition incubated for 48 hrs by LDH assay; type: functional, organism-based; settings: K1, 48 h
Hemozoin [31] = assay: Inhibition of hemozoin formation in CQ-sensitive Plasmodium falciparum D10 infected in human type O+ erythrocytes assessed as decrease in hemozoin formation incubated for 32 hrs by cell fractionation assay; type: cell-based; settings: Erythrocyte

SMILES: Nc1ccnc2cc(Cl)ccc12
log K (Ferriprotoporphyrin IX [5]): 4.43

SMILES: C=C[C@H]1CN2CC[C@H]1C[C@@H]2[C@@H](O)c1ccnc2ccc(OC)cc12
log K (Ferriprotoporphyrin IX [5]): 5.26

SMILES: CCN(CC)CCCC(C)Nc1ccnc2cc(Cl)ccc12 (stereo not drawn) [CHLOROQUINE]
IC50 (Hemozoin [2]): 31.5 µM

SMILES: O=C(Nc1ccncc1)c1cc([N+](=O)[O-])cc([N+](=O)[O-])c1
IC50 (Plasmodium falciparum [8]): 2.4 µM
IC50 (Plasmodium falciparum [9]): 4.76 µM
IC50 (Hemozoin [2]): 10.9 µM
IC50 (Plasmodium falciparum [3]): 2.3 µM
IC50 (Hemozoin [10]): 9.04 µM

SMILES: O=C(Nc1ccncc1)c1cc(C(=O)Nc2ccncc2)cc([N+](=O)[O-])c1
solubility kinetic at 2 h [11]: < 5 µM
IC50 (Plasmodium falciparum [8]): 0.9 µM
microsomal CLint at 0.1 µM [12]: < 11.6 µL/min/mg
solubility kinetic at 2 h [13]: 200 µM (≈ 72.6 µg/mL)
half-life at 0.1 µM [14]: > 2.5 h
half-life at 0.1 µM [15]: > 2.5 h
microsomal CLint at 0.1 µM [16]: < 11.6 µL/min/mg
IC50 (Plasmodium falciparum [9]): 0.19 µM
IC50 (CHO): > 275 µM
half-life at 0.1 µM [17]: > 2.5 h
IC50 (Hemozoin [2]): 4.3 µM
IC50 (Plasmodium falciparum [3]): 0.7 µM
IC50 (Hemozoin [10]): 5.86 µM
microsomal CLint at 0.1 µM [18]: < 11.6 µL/min/mg
solubility kinetic at 2 h [19]: 13 µM (≈ 4.72 µg/mL)

SMILES: O=C(Nc1ccccc1)c1cc(C(=O)Nc2nc3ccccc3[nH]2)cc([N+](=O)[O-])c1
IC50 (Hemozoin [2]): 68 µM
Activity (Plasmodium falciparum [20]): inactive
Activity (Plasmodium falciparum [21]): inactive

SMILES: O=C(Nc1ccccn1)c1cc([N+](=O)[O-])cc([N+](=O)[O-])c1
IC50 (Plasmodium falciparum [8]): 24 µM
IC50 (Hemozoin [2]): 134 µM
IC50 (Plasmodium falciparum [3]): 22 µM

SMILES: CC(C)(C)c1cc(C(=O)Nc2cccnc2)cc(C(=O)Nc2cccnc2)c1
Activity (Hemozoin [24]): Active
selectivity ratio [25]: 308
solubility kinetic at 2 h [11]: 92.7 µM (≈ 34.7 µg/mL)
IC50 (Plasmodium falciparum [8]): 0.7 µM
microsomal CLint at 0.1 µM [12]: 14.1 µL/min/mg
solubility kinetic at 2 h [13]: 197 µM (≈ 73.8 µg/mL)
hepatic extraction ratio at 0.1 µM [26]: 0.6
half-life at 0.1 µM [14]: 2.37 h
half-life at 0.1 µM [15]: 1.55 h
microsomal CLint at 0.1 µM [16]: 130 µL/min/mg
IC50 (CHO): 185 µM
half-life at 0.1 µM [17]: 0.873 h
IC50 (Hemozoin [2]): 6.8 µM
IC50 (Plasmodium falciparum [3]): 0.6 µM
hepatic extraction ratio at 0.1 µM [27]: 0.4
inhibition (Hemozoin [28]): Dose-dependent effect
hepatic extraction ratio at 0.1 µM [29]: 0.4
microsomal CLint at 0.1 µM [18]: 33.5 µL/min/mg
IC50 (Plasmodium falciparum [30]): 1.7 µM
solubility kinetic at 2 h [19]: 154 µM (≈ 57.5 µg/mL)
inhibition (Hemozoin [31]): Dose-dependent effect

Further lines, with some results ahead:

IC50 (Hemozoin [2]): 7.9 µM
SMILES: CN(C)Cc1ccc(NC(=O)c2cc(C(=O)Nc3ccc(CN(C)C)cc3)cc([N+](=O)[O-])c2)cc1
Activity (Hemozoin [1]): 53%
IC50 (Plasmodium falciparum [3]): 1.5 µM
Activity (Hemozoin [4]): 41%

log K (Ferriprotoporphyrin IX [5]): 3.92
IC50 (Hemozoin [2]): 8 µM
SMILES: Cc1cc(C(=O)Nc2ccncc2)cc(C(=O)Nc2ccncc2)c1
IC50 (Plasmodium falciparum [3]): 2.5 µM

Activity (Ferriprotoporphyrin IX [6]): inactive
IC50 (Hemozoin [2]): > 5500 µM
Activity (Ferriprotoporphyrin IX [7]): inactive
SMILES: O=C(Nc1ccncc1)c1ccc([N+](=O)[O-])cc1

IC50 (Hemozoin [2]): 13.3 µM
SMILES: CC(C)(C)c1cc(C(=O)Nc2ccncc2)cc(C(=O)Nc2ccncc2)c1
IC50 (Plasmodium falciparum [3]): 1.6 µM

Activity (Ferriprotoporphyrin IX [6]): inactive
IC50 (Hemozoin [2]): > 5500 µM
Activity (Ferriprotoporphyrin IX [7]): inactive
SMILES: O=C(Nc1ccccc1)c1ccc([N+](=O)[O-])cc1

Activity (Ferriprotoporphyrin IX [6]): 1300 to 2300 µM
SMILES: O=C(Nc1ccncc1)c1cccc(C(F)(F)F)c1

IC50 (Hemozoin [2]): 4.7 µM
SMILES: O=C(Nc1cccnc1)c1cc(C(=O)Nc2cccnc2)cc([N+](=O)[O-])c1
IC50 (Plasmodium falciparum [3]): 1.32 µM

Activity (Ferriprotoporphyrin IX [6]): 1300 to 2300 µM
SMILES: O=C(Nc1ccncc1)c1cccc(Cl)c1

IC50 (Hemozoin [2]): 4.4 µM
SMILES: N#Cc1cc(C(=O)Nc2ccccc2)cc(C(=O)Nc2ccccc2)c1
IC50 (Plasmodium falciparum [8]): 5.2 µM

IC50 (Hemozoin [2]): > 1000 µM
SMILES: CC(C)(C)c1cc(C(=O)Nc2ccccc2)cc(C(=O)Nc2ccccc2)c1
inhibition (Hemozoin [22]): inactive
inhibition (Hemozoin [23]): inactive
IC50 (Plasmodium falciparum [3]): 8.1 µM

Activity (Ferriprotoporphyrin IX [6]): inactive
IC50 (Hemozoin [2]): > 5500 µM
Activity (Ferriprotoporphyrin IX [7]): inactive
SMILES: Cc1ccc(C(=O)Nc2ccncc2)cc1
